From patent US20080319001A1, “Cancer Treatment Using Specific 3,6,9-Substituted Acridines” (priority 2005, published 2008)

What was measured:
human telomerase = details: Read et al. 2001; Harrison et al. 2003; Schultes et al. 2004; cited from earlier work
A549-derived xenografts = assay: A549 xenograft combination study; format: in vivo, mouse; details: single agent (AS1410 1 mg/kg or cisplatin 6 mg/kg), after approximately 60 days
Method: AS1410 was reconstituted in 0.9% saline B.P. to the required final concentration (0.331 and 0.0993) mg/ml of AS1410 succinate salt for intravenous administration).
The xenografts were prepared from the lung carcinoma A549 (ATCC Number CCL-185). Cells were grown in accordance with standard operating procedures and established methodology for this cell line to provide 5×10^6 cells per mouse.
A549-derived xenografts were established in 50 female nu/nu MF1 mice respectively by subcutaneous injection into the right flank of each mouse (5×10^6 cells in 100 μl phosphate buffered saline).
Animals were checked regularly until visible tumours appeared. Tumours were then measured in accordance with the relevant SOP regularly and tumour volume calculated using the formula: […]
Once the tumours were established, the mice were allocated into groups of 9 mice using a randomization procedure based on stratified xenograft volume.
Day 0 is defined as the day on which the average tumour volume is between 0.04 to 0.1 cm^3. Relative tumour volume on Day 0 is defined as 1.
Each mouse was observed and tumours measured until the xenografts tripled (3V0) in volume compared with volume on the day of treatment (V0). The elapsed period is the volume tripling time (VTT).
AS1410 was given by slow bolus intravenous injection. For AS1410 a dose volume 5 μl/g bodyweight was used. Control mice were untreated. […]

Row | Compound | in vitro inhibitory activity against human telomerase (human telomerase) | relative tumour volume (A549-derived xenografts)
1 | Nc1ccc(Nc2c3ccc(NC(=O)CCN4CCCC4)cc3nc3cc(NC(=O)CCN4CCCC4)ccc23)cc1 [BR-ACO-20] | potent in vitro inhibitory activity | 
2 | N.N.[Cl][Pt][Cl] [cisplatin, cis-diaminedichloroplatinum(II)] |  | about 5
